One series concerns HeLa. Briefly: Mammalian cell activity. Format: cell-based. As to conditions: Homo sapiens. The procedure:
Bioactivities assays of Janus face Tryptophan […]
Fluorescence was recorded using a FLx
800 plate reader (BioTek) with an excitation wavelength 530–535 nm and emission wavelength of 590–610 nm using Gen5 Reader Control 2.0 Software (BioTek). EC50 values were determined using a 4-parameter non-linear logistic regression equation using GraFit 5.0 (Erithacus Software). SD values were calculated based on curve fitting to n biological replicates performed in parallel.

For another series, the system named is T. brucei. Briefly: Trypanocidal activity against growing cells. Format: cell-based, Trypanosoma brucei. From the text:
(§1) Accordingly N‐Boc amino acid esters 20a–d were hydrolyzed to their free carboxylic acids 25a–d and then progressed in each case to the corresponding Weinreb–Nahm amides^[ [33] ^] 26a–d. N‐Boc deprotection followed by coupling to N‐Boc‐tryptophan generated dipeptides 27a–d as the required precursors for cyclization. The intramolecular Pictet–Spengler condensations, followed a previous protocol^[ [19] ^] and 4‐monofluoro 28a, 3,5‐difluoro‐ 28b, and 2,3,4,5,6‐pentafluoro‐ 28d keto‐piperazines could be prepared following this method. It is noteworthy that the pentafluoro‐ analog was accompanied by what appeared to be a high level of defluorinated side products, however 28d was conveniently purified by HPLC rather than column chromatography. […] Thus, 4‐monofluoro‐ 28a, 3,5‐difluoro‐ 28b, and 2,3,4,5,6‐pentafluoro‐ 28d cyclohexyl‐amino acid tryptophan diketopiperazines were prepared and explored in antitrypanosomal assays. Given the importance of molecular lipophilicity in the context of medicinal chemistry, a Log P assessment (HPLC) was made of the diketopiperazines products 28a, 28b, and 28d as illustrated in Table 1 . As anticipated, there is an increase in polarity (LogP reduction) as the number of fluorines increases. We also know from previous work[[6b]] that the Ph ring is more polar than cyclohexane but less polar than the progressively fluorinated cyclohexane rings. The keto‐piperazines 28a, 28b, and 28d were assayed^[ [20] ^] against growing cells of T. brucei and T. cruzi, as well as the human cell line, HeLa and the data is presented in Table 1.
Bioactivities assays of Janus face Tryptophan
Parasites were grown in different medium (e.g. T. brucei was grown in HMI-11 medium) with 10% heat-inactivated foetal bovine serum. parasites were counted using CASY TT Cell Counter. Fluorescence was recorded using a FLx 800 plate reader (BioTek) with an excitation wavelength 530–535 nm and emission wavelength of 590–610 nm using Gen5 Reader Control 2.0 Software (BioTek). EC50 values were determined using a 4-parameter non-linear logistic regression equation using GraFit 5.0 (Erithacus Software). SD values were calculated based on curve fitting to n biological replicates performed in parallel.

The next series can be described thus: Log P assessment (HPLC). Format: physicochemical.
Description: as §1

For the compound `O=C1NC(CC2CCC(F)CC2)C2NC1Cc1c2[nH]c2ccccc12` (stereo not shown) [28a], the values for the EC50 with HeLa and in the series with T. brucei (Trypanosoma brucei) were 105 ± 6.25 µM and 10.7 ± 0.46 µM, respectively. In the series on T. brucei (comparison within series and with 29), the “trypanocidal activity against T. brucei” value was “best compound”. Also, in the series “Log P assessment (HPLC)”, the chromatographic logP (as a rule, a lipophilicity value derived from retention on a column) was 3.02.

Source of the values: publication PMC12631002, “Bioactivity Profiles of Progressively Ring‐Fluorinated Cyclohexyl Motifs in the WKYMVm Peptide as Formylpeptide FPR2 Agonists and in Keto‐Piperazines as Antitrypanosome Agents” (Chembiochem, 2025).
